Source: US20010007862A1, “METHOD OF SELECTING A SALT FOR MAKING AN INCLUSION COMPLEX” (priority 1996, published 2001)
Counter-ions that a name gives are not always drawn.

Assay: Equilibrium solubility of ziprasidone salts in 40% (w/v) aqueous SBECD
Details: 40% SBECD
From the text: Many different experimental protocols can be envisioned and implemented.

With `O=C1Cc2cc(CCN3CCN(c4nsc5ccccc45)CC3)c(Cl)cc2N1` [mesylate, Ziprasidone Mesylate] as the molecule, how does the “Rank of solubility among salt candidates and cyclodextrin solutions tested” value read?
The value was “highest solubility”.
